In patent publication US11357840B2, “Methods and compositions for reducing growth, migration and invasiveness of brain cancer stem cells and improving survival of patients with brain tumors” (HYPERSTEM SA, priority 2014, dated 2022):
No end group written: not given here. *: point of attachment. Boc = CC(C)(C)OC(=O)*; For = O=C*

Columns and labels:
4T1 breast cancer cells = settings: in vitro; Safholm et al. 2008; cited from earlier work
[1] = tested on: growth factor independent (GFI) hGBM TPCs; assay: Matrigel invasion assay, GFI TPCs; assay type: cell-based, human
Excerpt: Invasion Assays—Matrigel Invasion Assays
An Invasion Assay is an in vitro system to study invasion capability of malignant and normal cells. Specific applications include assessment of the metastatic potential of tumor cells, inhibition of metastasis by extracellular matrix components or antineoplastic drugs, altered expression of cell surface proteins, or matrix metalloproteinases in metastatic cells; and invasion of normal cells such as embryonic stem cells, cytotrophoblasts, endothelial cells, and fibroblasts.
According to one embodiment, the following Matrigel invasion assay protocol is one example of an invasion assay. A coating buffer is prepared and a Matrigel Matrix aliquot is thawed at 4° C. Then, a coating solution is prepared by mixing the Matrigel Matrix with the coating buffer. A number of permeable supports are transferred into the wells of a 24-well plate and 100 ul of the diluted Matrigel is put into each well of the 24-well plate. The plate is then incubated with the coated permeable support at 37° C. for 2 h for gelling. Cells are cultured and prepared for the invasion assay, for example, growth factor dependent hGBM tumor-propagating cells with stem-like characteristic (GFD TPCs) are pretreated with saturating concentrations of recombinant Wnt5a protein (GFD+R5); lentiviral-mediated over-expression GFD cells (GFD+LV5); growth factor independent (GFI) TPCs are treated with saturating concentrations of a Wnt5a-blocking antibody (AbW5) or of a recombinant Wnt3a protein (R3) or of a recombinant secreted frizzled-related protein 1 (SFRP1), or GFI TPCs exposed to Wnt5a-derived peptides termed Box5 (SEQ ID NO: 1), Peptide A (SEQ ID NO: 2) and Peptide B (SEQ ID NO: 3) Cell suspensions are prepared in culture medium containing 5×10^4 cells/mL for the 24 well invasion chambers. An aliquot of 0.5 mL of cell suspension (2.5×10^4 cells) is then added to each 24 well invasion chamber. A chemoattractant is added to the wells of the plate (such as fibronectin as an adhesive substrate). The Cell invasion chambers are then incubated overnight in a humidified tissue culture incubator at 37° C., 5% CO2 atmosphere. The noninvaded cells on the top of the Matrigel coated permeable support are scraped off with a cotton swab. Then the permeable supports from 24-well plates are removed and stained with a cell staining solution and the invaded cells are counted under a light microscope.

[2] = tested on: hGBM TPC-derived tumors (GFI / GFD TPCs); assay: Orthotopic implantation of luciferase-tagged TPCs into SCID mice; assay type: in vivo, mouse (SCID); settings: for tumor growth (luc-TPC signal, time course): GFI cells treated in culture prior to transplantation (pre-treatment), SCID mice, FIG. 18c; for tumor growth (luc-TPC signals, time course): co-injection (co-treatment) with either GFD or GFI TPCs, FIGS. 18e and 18f; for tumor spread through the brain parenchyma (luciferase immunolabeling): luc-GFI pre-treated vs untreated GFI TPCs, FIG. 18d
Procedure: Evaluation of Tumorigenic Ability and Invasiveness In Vivo by Orthotopic Implantation
Tumorigenicity was determined by injecting tumor cells into immunodeprived adult severe combined immunodeficiency (SCID) mice. (Galli et al., Cancer Res. 2004, 65:7011-7021). Tumor cells, for example, GFI TPCs, GFD TPCs, GFI TPCs pretreated with Box5 (SEQ ID NO: 1), GFI TPCs pretreated with PeptideA (SEQ ID NO: 2) were injected into SCID mice orthotopically to evaluate the tumorigenic ability and invasiveness in vivo. Also, GFD or GFI TPCs and Wnt5a-blocking protein (AbWt), alone or in combination with BMP4 (B4), Box5 (SEQ ID NO: 1) and PeptideA (SEQ ID NO: 2) were co-injected into the SCID mice.
Mice were sacrificed at different times. Serial histological reconstruction of mouse brain sections were immunolabeled for luciferase for evaluation.
Results from in vivo experiments were all subjected to statistical analysis. Survival curves were estimated using the Kaplan-Meier method.

GFI or GFD TPCs = assay: Growth kinetics (expansion) of TPCs; assay type: cell-based, human; settings: FIG. 16g
melanoma cells = settings: Jenei et al. 2009; cited from earlier work
[3] = tested on: growth factor dependent hGBM TPCs (GFD TPCs); assay: Matrigel invasion assay, GFD TPCs; assay type: cell-based, human; settings: GFD cells treated with saturating concentrations (GFD+R5); FIG. 16a
Procedure: According to one embodiment, the following Matrigel invasion assay protocol is one example of an invasion assay. A coating buffer is prepared and a Matrigel Matrix aliquot is thawed at 4° C. Then, a coating solution is prepared by mixing the Matrigel Matrix with the coating buffer. A number of permeable supports are transferred into the wells of a 24-well plate and 100 ul of the diluted Matrigel is put into each well of the 24-well plate. The plate is then incubated with the coated permeable support at 37° C. for 2 h for gelling. […] Then the permeable supports from 24-well plates are removed and stained with a cell staining solution and the invaded cells are counted under a light microscope. […]

[4] = GFI TPCs exposed to Wnt5a-derived peptides, FIGS. 16c and 16d
[5] = saturating concentrations, FIG. 16b

For-MDGCEL [Foxy-5, reference compound]
apoptosis or proliferation of 4T1 breast cancer cells (4T1 breast cancer cells): without affecting | migration and invasion of 4T1 breast cancer cells (4T1 breast cancer cells): impaired migration and invasion

LECGDM [Peptide A, hexapeptide LECGDM, peptide derivative of Box5]
invasiveness of GFI TPCs [1, 4]: decreased the invasiveness of GFI TPCs in a dose-dependent fashion | tumor growth (luc-TPC signal, time course) [2]: tumor growth is decreased | tumor growth (luc-TPC signals, time course) [2]: inhibited | tumor spread through the brain parenchyma (luciferase immunolabeling) [2]: spread through the brain parenchyma less | ability of GFI or GFD TPCs to expand (slope of the growth curves) (GFI or GFD TPCs): negligible effects

Leu-Glu-Gly-Asp-Met (LEGDM) [Peptide B, pentapeptide LEGDM, peptide derivative of Box5]
invasiveness of GFI TPCs [1, 4]: decreased the invasiveness of GFI TPCs in a dose-dependent fashion

t-butoxycarbonyl-Met-Asp-Gly-Cys-Glu-Leu (Boc-MDGCEL) [Box5, Wnt5a-derived hexapeptide MDGCEL, antagonist of Wnt5a, modified from Foxy-5, reference compound]
invasiveness of GFI TPCs [1, 4]: decreased the invasiveness of GFI TPCs in a dose-dependent fashion | tumor growth (luc-TPC signal, time course) [2]: tumor growth is decreased | tumor growth (luc-TPC signals, time course) [2]: inhibited | tumor spread through the brain parenchyma (luciferase immunolabeling) [2]: spread through the brain parenchyma less | antagonism of Wnt5a-mediated migration and invasion of melanoma cells (melanoma cells): potent, selective antagonist | ability of GFI or GFD TPCs to expand (slope of the growth curves) (GFI or GFD TPCs): negligible effects

B1: SFRP1: recombinant secreted frizzled-related protein 1, an endogenous Wnt antagonist (protein, UniProt Q8N474 32-314, looked up)
Secreted frizzled-related …: SEYDYVSFQSDIGPYQSGRFYTKPPQCVDIPADLRLCHNVGYKKMVLPNLLEHETMAEVKQQASSWVPLLNKNCHAGTQVFLCSLFAPVCLDRPIYPCRWLCEAVRDSCEPVMQFFGFYWPEMLKCDKFPEGDVCIAMTPPNATEASKPQGTTVCPPCDNELKSEAIIEHLCASEFALRMKIKEVKKENGDKKIVPKKKKPLKLGPIKKKDLKKLVLYLKNGADCPCHQLDNLSHHFLIMGRKVKSQYLLTAIHKWDKKNKEFKNFMKKMKNHECPTFQSVFK
invasiveness of GFI TPCs [1, 5]: decreased the invasiveness

B2: recombinant Wnt5a protein: recombinant Wnt5a protein (protein)
chain: IIGAQPLCSQLAGLSQGQKKLCHLYQDHMQYIGEGAKTGIKECQYQFRHRRWNCSTVDNTSVFGRVMQIGSRETAFTYAVSAAGVVNAMSRACREGELSTCGCSRAARPKDLPRDWLWGGCGDNIDYGYRFAKEFVDARERERIHAKGSYESARILMNLHNNEAGRRTVYNLADVACKCHGVSGSCSLKTCWLQLADFRKVGDALKEKYDSAAAMRLNSRGKLVQVNSRFNSPTTQDLVYIDPSPDYCVRNESTGSLGTQGRLCNKTSEGMDGCELMCCGRGYDQFKTVQTERCHCKFHWCCYVKCKKCTEIVDQFVCK
apoptosis or proliferation of 4T1 breast cancer cells (4T1 breast cancer cells): without affecting | migration and invasion of 4T1 breast cancer cells (4T1 breast cancer cells): impaired migration and invasion | cell migration of GFD cells [3]: increase in cell migration

B3: BMP4: bone morphogenetic protein 4, positive control (protein, UniProt P12644 293-408, looked up)
Bone morphogenetic protein 4: SPKHHSQRARKKNKNCRRHSLYVDFSDVGWNDWIVAPPGYQAFYCHGDCPFPLADHLNSTNHAIVQTLVNSVNSSIPKACCVPTELSAISMLYLDEYDKVVLKNYQEMVVEGCGCR
ability of GFI or GFD TPCs to expand (slope of the growth curves) (GFI or GFD TPCs): significantly triggered negative deviations from the growth kinetics

B4: recombinant Wnt3a protein: recombinant Wnt3a protein (R&D Systems) (protein, UniProt P56704 19-352, looked up)
Protein Wnt-3a: SYPIWWSLAVGPQYSSLGSQPILCASIPGLVPKQLRFCRNYVEIMPSVAEGIKIGIQECQHQFRGRRWNCTTVHDSLAIFGPVLDKATRESAFVHAIASAGVAFAVTRSCAEGTAAICGCSSRHQGSPGKGWKWGGCSEDIEFGGMVSREFADARENRPDARSAMNRHNNEAGRQAIASHMHLKCKCHGLSGSCEVKTCWWSQPDFRAIGDFLKDKYDSASEMVVEKHRESRGWVETLRPRYTYFKVPTERDLVYYEASPNFCEPNPETGSFGTRDRTCNVSSHGIDGCDLLCCGRGHNARAERRREKCRCVFHWCCYVSCQECTRVYDVHTCK
invasiveness of GFI TPCs [1, 5]: decreased the invasiveness
